According to the supplement of paper PMC10307832:

Experiments:
Assay in all cases: relative viability (nuclei count vs DMSO), 5 days (fraction); higher = more cells survive
Alpelisib + Foretinib = compound: Cc1nc(NC(=O)N2CCC[C@H]2C(N)=O)sc1-c1ccnc(C(C)(C)C(F)(F)F)c1 [Alpelisib] + COc1cc2c(Oc3ccc(NC(=O)C4(C(=O)Nc5ccc(F)cc5)CC4)cc3F)ccnc2cc1OCCCN1CCOCC1 [Foretinib] (partner 0.25 µM)
How it was run: (§1)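 Lung cancer cell lines were seeded in 1536-well plates and dosed by pin tool the next day, with either a single drug or a fixed anchor-drug dose combined with five library-drug doses (not always all listed) spaced in √10 steps. Five days later, one step fixed the cells and stained their nuclei (final 0.05% Triton X-100, 1% formaldehyde, 1 ug/ml Hoechst), and nuclei were counted on 4× images. Relative viability is the nuclei count in treated wells divided by the count in vehicle wells, and each value is the median of duplicate plates.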

Vemurafenib + Olaparib = compound: CCCS(=O)(=O)Nc1ccc(F)c(C(=O)c2c[nH]c3ncc(-c4ccc(Cl)cc4)cc23)c1F [Vemurafenib] + O=C(c1cc(Cc2n[nH]c(=O)c3ccccc23)ccc1F)N1CCN(C(=O)C2CC2)CC1 [Olaparib] (partner 8 µM)
How it was run: as §1

OSI-027 + Pemetrexed = compound: COc1cccc2cc(-c3nc([C@H]4CC[C@H](C(=O)O)CC4)n4ncnc(N)c34)[nH]c12 [OSI-027] + Nc1nc2[nH]cc(CCc3ccc(C(=O)N[C@@H](CCC(=O)O)C(=O)O)cc3)c2c(=O)[nH]1 [Pemetrexed] (partner 0.2 µM)
How it was run: as §1

Alpelisib + Navitoclax = compound: Cc1nc(NC(=O)N2CCC[C@H]2C(N)=O)sc1-c1ccnc(C(C)(C)C(F)(F)F)c1 [Alpelisib] + CC1(C)CCC(c2ccc(Cl)cc2)=C(CN2CCN(c3ccc(C(=O)NS(=O)(=O)c4ccc(N[C@H](CCN5CCOCC5)CSc5ccccc5)c(S(=O)(=O)C(F)(F)F)c4)cc3)CC2)C1 [Navitoclax] (partner 0.5 µM)
How it was run: as §1

Row | Cell Line | relative viability (Alpelisib + Foretinib; first compound 0.04 µM) | relative viability (Alpelisib + Foretinib; first compound 0.1265 µM) | relative viability (Alpelisib + Foretinib; first compound 0.4 µM) | relative viability (Alpelisib + Foretinib; first compound 1.265 µM) | relative viability (Alpelisib + Foretinib; first compound 4 µM) | relative viability (Vemurafenib + Olaparib; first compound 0.03162 µM) | relative viability (Vemurafenib + Olaparib; first compound 0.1 µM) | relative viability (Vemurafenib + Olaparib; first compound 0.3162 µM) | relative viability (Vemurafenib + Olaparib; first compound 1 µM) | relative viability (OSI-027 + Pemetrexed; first compound 0.01 µM) | relative viability (OSI-027 + Pemetrexed; first compound 0.03162 µM) | relative viability (OSI-027 + Pemetrexed; first compound 0.1 µM) | relative viability (OSI-027 + Pemetrexed; first compound 0.3162 µM) | relative viability (OSI-027 + Pemetrexed; first compound 1 µM) | relative viability (Alpelisib + Navitoclax; first compound 0.04 µM) | relative viability (Alpelisib + Navitoclax; first compound 0.1265 µM) | relative viability (Alpelisib + Navitoclax; first compound 0.4 µM) | relative viability (Alpelisib + Navitoclax; first compound 1.265 µM) | relative viability (Alpelisib + Navitoclax; first compound 4 µM)
1 | 201T | 1.11 | 1.06 | 1.29 | 0.841 | 0.71 | 0.828 | 0.806 | 0.86 | 0.828 | 0.316 | 0.348 | 0.313 | 0.332 | 0.305 | 1.16 | 1.16 | 1.2 | 1.15 | 1.14
2 | A549 | 0.926 | 0.875 | 0.956 | 0.662 | 0.599 | 0.315 | 0.323 | 0.186 | 0.249 | – | – | – | – | – | 1.23 | 1.18 | 1.06 | 0.851 | 0.715
3 | A-427 | 1.19 | 0.833 | 1.11 | 0.831 | 0.992 | 0.71 | 0.663 | – | 0.701 | 0.575 | 0.966 | 0.783 | 0.737 | 0.616 | 0.837 | 0.884 | 0.997 | 0.874 | 0.884
4 | ABC-1 | 1.28 | 0.876 | 0.878 | 0.611 | 0.78 | 1.12 | 0.8 | 0.6 | 0.93 | – | – | – | – | – | – | – | – | – | –
5 | BEN | 0.792 | 0.401 | 0.732 | 0.737 | 0.521 | 0.971 | 0.992 | 0.653 | 1.06 | 0.78 | 0.754 | 0.472 | 0.586 | 0.46 | 0.0833 | 0.0642 | 0.161 | 0.0705 | 0.0615
6 | CAL-12T | 1.08 | 1.24 | 1.14 | 1.06 | 1.07 | 0.686 | 0.663 | 0.83 | 0.829 | 1.17 | 1.18 | 1.22 | 0.976 | 0.527 | 1.35 | 1.29 | 1.22 | 1.16 | 1.47
7 | COR-L23 | 1.01 | 0.933 | 1.12 | 0.843 | 0.839 | 0.332 | 0.353 | 0.298 | 0.341 | 0.194 | 0.194 | 0.193 | 0.181 | 0.197 | 0.923 | 1.02 | 1.07 | 0.789 | 0.753
8 | COR-L 105 | 1.08 | 1.26 | 1.02 | 1 | 1.08 | 0.617 | – | 0.742 | 0.734 | 1.22 | 1.18 | 1.13 | 1.04 | 0.999 | 0.607 | 0.633 | 0.728 | 0.615 | 0.554
9 | Calu-6 | 0.926 | 0.842 | 0.931 | 0.871 | 0.617 | – | 0.593 | 0.549 | 0.471 | – | – | – | – | – | 0.834 | 0.905 | 0.882 | 0.633 | 0.621
10 | ChaGo-K-1 | 0.881 | 0.91 | 1.01 | 0.807 | 0.8 | 0.404 | 0.4 | 0.49 | 0.382 | 0.259 | 0.311 | 0.251 | 0.337 | 0.262 | 1.01 | – | 1.14 | 0.731 | 0.583
11 | EBC-1 | 0.101 | 0.0979 | 0.0957 | 0.108 | 0.114 | 0.451 | 0.657 | 0.723 | 0.649 | – | – | – | – | – | 0.417 | 0.312 | 0.339 | 0.233 | 0.281
12 | EKVX | 0.519 | 0.726 | 0.66 | 0.67 | 0.73 | 0.891 | – | 0.898 | 0.911 | 0.438 | 0.391 | 0.486 | 0.382 | 0.403 | 0.969 | 0.903 | 1.12 | 0.84 | 0.75
13 | EMC-BAC-2 | 0.973 | 0.867 | 1.01 | 0.689 | 0.592 | 0.444 | 0.528 | 0.352 | 0.369 | 0.385 | 0.493 | 0.478 | 0.472 | 0.392 | 1.11 | 1.08 | 1.17 | 0.956 | 0.879
14 | EPLC-272H | 0.723 | 0.674 | 0.754 | 0.376 | 0.422 | 0.717 | 0.742 | 0.834 | 0.867 | 0.357 | 0.279 | 0.263 | 0.273 | 0.338 | 1.16 | 1.05 | 1.19 | 0.722 | 0.79
15 | H3255 | 0.973 | 0.753 | 0.96 | 0.695 | 0.562 | 0.497 | – | 0.519 | 0.556 | 0.517 | 0.569 | 0.507 | 0.513 | 0.495 | 0.463 | 0.47 | 0.524 | 0.384 | 0.407
